Here are results for four molecules from patent US20160002733A1, “ASSESSING RISK FOR ENCEPHALOPATHY INDUCED BY 5-FLUOROURACIL OR CAPECITABINE” (THE BOARD OF TRUSTEES OF THE LELAND STANFORD JUNIOR …, priority 2013, published 2016).

“And” between values parts separate entries of the source, which are not always exact repeats. Identical values can stand only once. Like-named read-outs stand apart in the source and are kept apart here.

The format of data set [1] is in vivo, human. The conditions noted are these: for plasma ammonia: male. How it is done:
Plasma ammonia levels were obtained at Stanford University Medical Center, which followed a strict protocol of immediately placing the blood sample on ice, and then analyzing the sample within 15 minutes. Samples not placed on ice, or analyzed after a longer delay yield artificially elevated plasma ammonia levels due to release of ammonia from erythrocytes and deamination of plasma amino acids (52, 53).
A person with gastric adenocarcinoma underwent subtotal gastrectomy and Roux-en-Y gastrojejunostomy, followed by two cycles of adjuvant carboplatin and capecitabine (1000 mg/m^2 twice a day for 14 days), and then 50 Gy of radiation therapy to the tumor bed with concurrent capecitabine (1000 mg/m^2 twice a day). During each course of capecitabine, they experienced extreme lethargy, without mucositis, diarrhea or hand-foot syndrome.
On the third cycle of carboplatin and capecitabine, self-administered folate 1 mg/d hoping to prevent lethargy. From days 5 to 14 of capecitabine, they became increasingly confused, and then combative and ataxic. Two days after the last capecitabine dose, they were taken to local emergency room for delirium and found to have a normal CT scan of the brain.
After discontinuation of lactulose on discharge from the hospital, plasma ammonia gradually rose and then returned to normal over two months (FIG. 2A). Four months after discharge, mild liver steatosis was noted on CT scan for the first time.
A person with newly diagnosed squamous cell carcinoma of the left tonsil and base of tongue began treatment with docetaxel and cisplatin, followed by a planned 5-day infusion of 5-FU (750 mg/m^2). Past medical history included manic depression treated with valproic acid.
(§1) After 1 day, the infusion 5-FU was held because of diarrhea from C. difficile, which was treated with metronidazole. Two days later, the infusion was resumed. On the third infusion day, the patient developed slurred speech and gait ataxia. On the fifth infusion day, they became delirious and then comatose. MRI and CT scan of the brain, and lumbar puncture were normal. Valproic acid trough levels ([…]) were within therapeutic range, which is sufficient to inhibit N-acetylglutamate synthase (FIG. 1A) and disrupt the urea cycle (11, 12). Despite multiple episodes of diarrhea and a delay of 10 hours following discontinuation of infusion 5-FU, plasma ammonia was elevated at 37 μmol/L. The next day, the patient was alert, and plasma ammonia was 16 μmol/L. The tumor had decreased markedly in size, no longer preventing them from turning their head.
A person with a well-differentiated neuroendocrine tumor of unknown primary began treatment with capecitabine (days 1-14) and temozolomide (days 10-14) after progression of massive liver metastases. […]

The conditions of data set [2]: high dose continuous infusion 5-FU; sixteen of 280 patients; cited from earlier work.
Data set [3] in a line: Valproic acid trough levels in Patient 2. It is filed as in vivo, human. The conditions noted are these: within therapeutic range. The method, then: as §1
A short description of data set [4]: Prospective measurement of plasma ammonia levels in patients treated with capecitabine. Format: in vivo, human. The method, then: Prospective Measurement of Plasma Ammonia Levels in Patients Treated with Capecitabine
Patients donated whole blood for analysis after providing consent according to a protocol approved by the Stanford University Administrative Panel for the Protection of Human Subjects.
Plasma ammonia levels were obtained at Stanford University Medical Center, which followed a strict protocol of immediately placing the blood sample on ice, and then analyzing the sample within 15 minutes. Samples not placed on ice, or analyzed after a longer delay yield artificially elevated plasma ammonia levels due to release of ammonia from erythrocytes and deamination of plasma amino acids (52, 53). […]
Mid-cycle levels were measured after patients had taken capecitabine for 7 to 14 days. […]
To prospectively measure plasma ammonia after capecitabine, we prospectively studied 29 cancer patients (Table 3). […] To estimate baseline plasma ammonia levels, we measured 2 or more levels before the first capecitabine dose or at least 7 days after the previous capecitabine dose.
We monitored changes in cognitive function between baseline and mid-cycle time points with two instruments: a telephone-administered mini-mental status examination, and a patient self-administered questionnaire. […]

`OC[C@H]1O[C@@H](O[C@@H]2[C@@H](CO)OC(O)(CO)[C@H]2O)[C@H](O)[C@@H](O)[C@H]1O` (mixture of isomers) [lactulose]: in data set [1] (Patient 1 (index case), declined from 158 μmol/L, symptoms resolved), the “plasma ammonia with lactulose treatment” value is 29 µmol/L.
`O=c1[nH]cc(F)c(=O)[nH]1` [5-FU, 5-fluorouracil] had a plasma ammonia in data set [1] (human, in vivo) of 16 µmol/L. Also, in data set [2], the “patients who suffered encephalopathy with hyperammonemia” value is on record as 5.7%.
On to `CCCC(CCC)C(=O)O` [Valproic acid, valproic acid], for which the Valproic acid trough levels in data set [3] is 45 µg/mL and 68 µg/mL.
The molecule `CCCCCOC(=O)Nc1nc(=O)n(C2OC(C)C(O)C2O)cc1F` (centres unmarked) [capecitabine, pentyl[1-(3,4-dihydroxy-5-methyltetrahydrofuran-2-yl)-5-fluoro-2-oxo-1H-pyrimidin-4-yl]carbamate] displayed a plasma ammonia level in data set [1] (female, human, in vivo, 7 days after the last capecitabine dose) of 158 µmol/L. In data set [1] (human, in vivo, 7 days after discontinuing capecitabine), this molecule returned a plasma ammonia of 54 µmol/L. The “patients with mid-cycle plasma ammonia levels increased above baseline levels” value in data set [4] (29 cancer patients, mid-cycle after 7 to 14 days of capecitabine, by more than 3 or 4 standard deviations (p<0.01 or p<0.001)) is 5 of the 29. Also, in data set [4] (of the 5 patients with increased mid-cycle ammonia, cognitive dysfunction, malaise, fatigue, unsteady gait), the “patients with clinically significant symptoms among those with increased mid-cycle ammonia levels” value was 2 of the 5.
